What was measured:
HEK293 cells [1] = test: Cytotoxicity assay after illumination (MTT); type: cell-based; conditions: 10 μM fluorophore, 10 min illumination
Method: HEK293 cells were grown on PLL-coated glass-bottom dishes as indicated above. At ˜80% confluency, the media was removed and cells were incubated for 30 min with fresh media alone, media plus vehicle (0.2% DMSO) or media plus 10 μM DMHBI, DFHBI or MG. Cells were then illuminated for 10 min at 37° C. with a Nikon Intensilight C-HGFIE 130 W mercury lamp with FITC (DMHBI and DFHBI) or Cy5 (malachite green) filter sets (Chroma Technology) on an inverted epifluorescence microscope. Control cells were illuminated for 10 min under identical conditions but in the absence of any fluorophore. Cells were then washed several times with media to remove fluorophores and assayed for mitochondrial activity with MTT (3-[4,5-dimethylthiazol-2-yl]-2,5-diphenyltetrazolium bromide) based cell proliferation kit (Roche) and prepared according to manufacturers instructions. MTT absorbance readings were performed at 550 nm with 650 nm absorbance used for background subtraction. Values are reported as percent change in viability compared to control samples (illumination without fluorophore or without vehicle) and each condition was repeated in triplicate and averaged.

HEK293 cells [2] = test: Nonspecific fluorescence activation by cellular components; type: cell-based; conditions: 10 μM, 30 min
Method: HEK293 cells were grown on PLL-coated glass-bottom dishes (MatTek) in DMEM plus 10% FBS to ˜80% confluency. Media was removed, cells were washed twice with microscopy media (20 mM HEPES pH 7.4, 119 mM NaCl, 5 mM KCl, 2 mM CaCl2, 2 mM MgCl2, and 30 mM glucose) and then incubated for 30 min with microscopy media plus vehicle (0.2% DMSO) or 10 μM N,N-Dimethyl-4′-nitro-4-stilbenamine, thiazole orange, malachite green, or DFHBI. Live fluorescence images were then taken with a CoolSnap HQ2 CCD camera through a 40× oil objective mounted on a Nikon TE2000 microscope and analyzed with the NIS-Elements software.

[3] = Truncation and mutagenesis of 24-2, DFHBI fluorescence; type: biochemical; conditions: with DFHBI
Method: Secondary structure prediction was performed using Mfold online software (Zuker, “Mfold Web Server for Nucleic Acid Folding and Hybridization Prediction,” Nucl. Acids Res. 31(13): 3406-3415 (2003), which is hereby incorporated by reference in its entirety). Mutated and truncated RNAs were created by ordering single stranded DNA templates (Integrated DNA Technologies) with the desired mutations or truncations and PCR amplifying these sequences to create double stranded DNA templates using primers which included a 5′ T7 promoter sequence. PCR products were then purified with PCR purification columns (Qiagen) and used as templates for in vitro T7 transcription reactions (Epicentre).

| Molecule | cytotoxicity / phototoxicity upon illumination (HEK293 cells [1]) | nonspecific fluorescence activation upon incubation with cells (HEK293 cells [2]) | fluorescence relative to full-length 24-2 [3] [%] |
| --- | --- | --- | --- |
| CC1=NC(=Cc2cc(F)c(O)c(F)c2)C(=O)N1C [DFHBI, 4-(3,5-difluoro-4-hydroxybenzylidene)-1,2-dimethyl-imidazol-5-one] | negligible phototoxicity | does not exhibit nonspecific fluorescence activation |  |
| 24-2-min: final truncated (minimized) 24-2 sequence (nucleic acid, listed as RNA, chemistry not given here) GACGCGACCGAAAUGGUGAAGGACGGGUCCAGUGCUUCGGCACUGUUGAGUAGAGUGUGAGCUCCGUAACUGGUCGCGUC |  |  | ~95 |
